Assay results from patent US20220378766A1, “[…] OF A GENE ENCODING AN […] BY TREATING A HUMAN SUBJECT WITH A NITROXIDE” (priority 2021, published 2022).

Test system: UCP3
Assay: Effects of Tempol on gene expression in mice, chip-based microarray of cardiac tissue
Type: in vivo
Conditions: Tempol 5 mg/g of food from 14 to 31 months after birth
Procedure: To assess the effects of Tempol on gene expression, Tempol was administered to experimental mice at a dose of 5 mg/g of food from 14 months to 31 months after birth. Mice receiving the same food without the addition of Tempol were used as a negative control. At the age of 31 months, the experimental animals were sacrificed and the hearts were surgically removed. The expression of a broad spectrum of genes in the cardiac tissue was assessed using chip-based microarray technology. Such chips are well known in the art and are widely used to assess gene expression.

## CC1(C)CC(O)CC(C)(C)N1[O] [Tempol, 4-hydroxy-2,2,6,6-tetramethylpiperidine-1-oxyl]
Cardiac tissue, microarray
  expression of UCP3: statistically significant increase in expression
vs. same food without Tempol, cardiac tissue per text (table title says adipose tissue), P-value 0.00
  Fold change (UCP3 gene expression after Tempol administration): 1.57
